# In ChEMBL document CHEMBL3046461, “Synthesis and herbicidal activity of sulfonanilides having a pyrimidinyl-containing group at the 2-position” (J Pestic Sci, 2011):
# Legend:
# [1] = test system: Pontederia vaginalis; test: Herbicidal activity against Monochoria vaginalis assessed as induction of crop damage after 28 days post compound application; type: functional
# [2] = test system: Schoenoplectiella juncoides; test: Herbicidal activity against Schoenoplectiella juncoides subsp. Hotarui (Ohwi) T. Koyama assessed as induction of crop damage after 28 days post compound application; type: functional
# [3] = test system: Echinochloa oryzicola; test: Herbicidal activity against Echinochloa oryzicola assessed as induction of crop damage after 28 days post compound application; type: functional
# [4] = test system: Oryza sativa; test: Phytotoxicity against two-leaf stage paddy Oryza sativa (rice) seedlings assessed as induction of crop damage after 28 days post compound application; type: organism-based; settings: in vivo, 672 h
Compound,ED90 [1] [gAi/ha],ED90 [2] [gAi/ha],ED20 [3] [gAi/ha],ED20 [4] [gAi/ha]
CCSC(c1nc(OC)cc(OC)n1)c1ccccc1NS(=O)(=O)C(F)(F)F (stereo unspecified),16,4,1000,63
CCc1cccc(C(O)c2nc(OC)cc(OC)n2)c1NS(=O)(=O)C(F)F (stereo unspecified),16,4,16,63
CCOc1cccc(C(O)c2nc(OC)cc(OC)n2)c1NS(=O)(=O)C(F)F (stereo unspecified),16,16,63,16
COc1cc(OC)nc(C(O)c2cccc(SC)c2NS(=O)(=O)C(F)F)n1 (stereo unspecified),63,63,250,63
COc1cc(OC)nc(C(Cl)c2ccccc2NS(=O)(=O)C(F)(F)F)n1 (stereo unspecified),16,4,1000,63
COc1cc(OC)nc(C(S)c2ccccc2NS(=O)(=O)C(F)(F)F)n1 (stereo unspecified),63,63,>1000,250
COc1cc(OC)nc(C(O)c2cc(Cl)ccc2NS(=O)(=O)C(F)F)n1 (stereo unspecified),1000,>1000,>1000,1000
CCCc1cccc(C(O)c2nc(OC)cc(OC)n2)c1NS(=O)(=O)C(F)F (stereo unspecified),16,63,16,63
COc1cc(OC)nc(C(O)c2ccccc2NS(=O)(=O)C/C=C/Cl)n1 (stereo unspecified),250,1000,>1000,250
COc1cc(OC)nc(C(O)c2ccccc2NS(=O)(=O)C(F)F)n1 (stereo unspecified),4,16,250,63
COc1cc(OC)nc(C(O)c2cccc(C)c2NS(=O)(=O)C(F)F)n1 (stereo unspecified),4,16,16,16
COc1cc(OC)nc(C(O)c2ccc(C)cc2NS(=O)(=O)C(F)F)n1 (stereo unspecified),16,16,1000,16
COc1cc(OC)nc(C(O)c2ccccc2NS(N)(=O)=O)n1 (stereo unspecified),1000,>1000,1000,250
COc1cc(OC)nc(C(O)c2ccc(Cl)cc2NS(=O)(=O)C(F)F)n1 (stereo unspecified),63,63,250,63
COc1cc(OC)nc(C(=O)c2ccccc2NS(=O)(=O)C(F)(F)F)n1,16,16,1000,63
COc1cc(OC)nc(C(O)c2ccccc2NS(=O)(=O)C(F)(F)F)n1 (stereo unspecified),4,4,1000,63
COc1cc(OC)nc(C(O)c2ccccc2NS(=O)(=O)CCl)n1 (stereo unspecified),16,63,1000,250
C/C=N/OC(c1nc(OC)cc(OC)n1)c1ccccc1NS(=O)(=O)C(F)(F)F (stereo unspecified),63,16,1000,63
COCc1cccc(C(O)c2nc(OC)cc(OC)n2)c1NS(=O)(=O)C(F)F (stereo unspecified),4,4,16,63
COc1cc(OC)nc(C(O)c2ccccc2NS(=O)(=O)CC#N)n1 (stereo unspecified),63,250,1000,250

Compound,ED90 [1] [gAi/ha],ED90 [2] [gAi/ha],ED20 [3] [gAi/ha],ED20 [4] [gAi/ha]
COc1cc(OC)nc(C(c2ccccc2NS(=O)(=O)C(F)(F)F)N(C)C)n1 (stereo unspecified),63,16,>1000,250
COc1cc(OC)nc(C(O)c2cccc(F)c2NS(=O)(=O)C(F)F)n1 (stereo unspecified),4,4,250,16
CC[S+]([O-])C(c1nc(OC)cc(OC)n1)c1ccccc1NS(=O)(=O)C(F)(F)F (stereo unspecified),1000,63,>1000,1000
COc1ccc(C(O)c2nc(OC)cc(OC)n2)c(NS(=O)(=O)C(F)F)c1 (stereo unspecified),16,63,16,16
COc1cc(OC)nc(C(O)c2c(Cl)cccc2NS(=O)(=O)C(F)F)n1 (stereo unspecified),64,250,>1000,1000
COc1cc(OC)nc(C(O)c2ccccc2NS(=O)(=O)c2ccccc2)n1 (stereo unspecified),1000,>1000,>1000,1000
COc1cc(OC)nc(C(O)c2ccccc2NS(C)(=O)=O)n1 (stereo unspecified),250,>1000,1000,63
COc1cc(OC)nc(C(O)c2ccccc2NS(=O)(=O)C(C)C)n1 (stereo unspecified),1000,>1000,>1000,1000
COc1cc(OC)nc(C(O)c2c(F)cccc2NS(=O)(=O)C(F)F)n1 (stereo unspecified),16,16,63,16
COc1cc(OC)nc(C(OC)c2ccccc2NS(=O)(=O)C(F)(F)F)n1 (stereo unspecified),16,63,63,63
CCS(=O)(=O)C(c1nc(OC)cc(OC)n1)c1ccccc1NS(=O)(=O)C(F)(F)F (stereo unspecified),250,250,>1000,1000
COc1cc(OC)nc(C(O)c2cccc(Oc3ccccc3)c2NS(=O)(=O)C(F)F)n1 (stereo unspecified),250,>1000,>1000,1000
COc1cc(OC)nc(C(O[Si](C)(C)C)c2ccccc2NS(=O)(=O)C(F)(F)F)n1 (stereo unspecified),4,4,1000,63
CCCOc1cccc(C(O)c2nc(OC)cc(OC)n2)c1NS(=O)(=O)C(F)F (stereo unspecified),63,250,250,63
COc1cc(OC)nc(C(O)c2cccc(OC)c2NS(=O)(=O)C(F)F)n1 (stereo unspecified),16,63,16,4
COc1ccc(NS(=O)(=O)C(F)F)c(C(O)c2nc(OC)cc(OC)n2)c1 (stereo unspecified),250,>1000,>1000,63
COc1cc(OC)nc(C(O)c2ccccc2NS(=O)(=O)CF)n1 (stereo unspecified),16,16,63,63
COc1cc(OC)nc(C(OC(C)=O)c2ccccc2NS(=O)(=O)C(F)(F)F)n1 (stereo unspecified),16,4,>1000,63
CCS(=O)(=O)Nc1ccccc1C(O)c1nc(OC)cc(OC)n1 (stereo unspecified),1000,>1000,1000,1000
